# Tests used:
# Assay type in all cases: in vivo, BDF mice
# P388 leukemia cells [1] = test: Enhancing carcinostatic action in cancer chemotherapy (2): CPA and TMG, survival of P388 leukemia mice; conditions: CPA alone administered, 360 mg/kg i.p. 1st, 3rd, 5th, 7th days, 60 days
# Description: P388 leukemia cells (6×10^6 cells) were administered intraperitoneally to female BDF mice of 8-9 weeks old (8 heads per group, body weight of 20-22 g). On the following day (1st day), cyclophosphamide (CPA) and TMG were administered at respective dose of 360 mg/kg and 0.01 mg/kg were intraperitoneally administered to the mice. Thereafter, CPA (360 mg/kg) was administered on the 3rd, 5th, and 7th days and TMG (0.01 mg/kg) was administered every day from the 2nd through 9th days. The survival ratio of these mice was measured 60 days after the administration of CPA and TMG.
# P388 leukemia cells [2] = test: Enhancing carcinostatic action in cancer chemotherapy (1): CDDP and TMG, survival of P388 leukemia mice; conditions: 5th, TMG 0, 60 days; for Number surviving: 8 per group
# Description: P388 leukemia cells (6×10^6 cells) were administered intraperitoneally to female BDF mice of 8-9 weeks old (8 heads per group, body weight of 20-22 g). On the following day, a solution having prescribed amounts of cisplatin (CDDP) and TMG in 0.2 ml of physiological saline was intraperitoneally administered to the mice. The survival ratio of these mice was measured 60 days after the administration of CDDP and TMG.
# [3] = Repressing side effects (1): survival after lethal dose of CDDP
# Description: CDDP was intraperitoneally administered in a dosage of 16 mg/kg, a lethal dose, to 10 BDF mice of 8 weeks old (22-25 g). These mice formed Control Group. A group of mice to which CDDP was administered simultaneously with TMG in a dosage of 0.01 mg/kg formed Test Group 1 and a group of mice to which CDDP was administered simultaneously with TMG in a dosage of 1.0 mg/kg formed Test Group 2. The time course changes of survival ratio of the Control Group and Test Groups were measured.
# [4] = Repressing side effects (2): number of leukocytes in blood under CDDP; conditions: Control Group: CDDP 2 mg/kg i.p. once daily for 10 days
# Description: CDDP was intraperitoneally administered in a dosage of 2 mg/kg to 5 BDF mice of 8 weeks old once daily for 10 days. These mice formed Control Group. A group of mice to which CDDP was administered simultaneously with TMG in a dosage of 1 mg/kg once daily for 10 days formed Test Group. The time course changes of the numbers of leukocytes in blood of the Control Group and Test Group were measured.
# P388 leukemia cells [5] = test: Enhancing carcinostatic action in cancer chemotherapy (3): ADM and TMG, survival of P388 leukemia mice; conditions: ADM 16 mg/kg i.p. 1st, 3rd, 5th, 7th days, TMG 0, 7 days after administration
# Description: P388 leukemia cells (6×10^6 cells) were administered intraperitoneally to female BDF mice of 8-9 weeks old (8 heads per group, body weight of 20-22 g). On the following day (1st day), 16 mg/kg of adriamycin (ADM) and a prescribed amount TMG were intraperitoneally administered to the mice. Thereafter, ADM (16 mg/kg) was administered on the 3rd, 5th, and 7th days and TMG (prescribed amount as mentioned above) was simultaneously administered every day on the 2nd-7th days. The survival ratio of these mice was measured 7 days after the administration of ADM and TMG.
# [6] = Repressing side effects (4): decrease of body weight under ADM in P388 leukemia mice; conditions: Control Group: ADM 16 mg/kg once daily for 9 days
# Description: P388 leukemia cells (6×10^6 cells) were administered intraperitoneally to female BDF mice of 8-9 weeks old (8 heads per group, body weight of 20-22 g). On the following day, ADM was administered in a dosage of 16 mg/kg once daily for 9 days. The mice formed Control Group. A group of mice to which TMG was administered simultaneously with ADM in a dosage of 0.1 mg/kg once daily for 9 days formed Test Group.
# The time-course changes of the body weight of the Control Group and Test Group were measured.
# [7] = CDDP 2 mg/kg i.p. 1st, 3rd, 7th days
# [8] = CDDP 4 mg/kg i.p. 1st, 9th days
smiles,measurement,setting,value
"O=P1(N(CCCl)CCCl)NCCCO1 (centres unmarked) [CPA, cyclophosphamide]",Survival ratio,P388 leukemia cells [1],50%
same,Number surviving,P388 leukemia cells [1]; 8 per group,4 Heads
"[NH2][Pt]([NH2])([Cl])[Cl] [CDDP, cisplatin]",Survival ratio,P388 leukemia cells [2]; [7],75%
same,Number surviving,P388 leukemia cells [2]; [7],6 Heads
same,Survival ratio,P388 leukemia cells [2]; [8],75%
same,Number surviving,P388 leukemia cells [2]; [8],6 Heads
same,Survival ratio,"[3]; Control Group: CDDP 16 mg/kg i.p. (lethal dose) alone, day 0 after administration of CDDP",100%
same,Survival ratio,"[3]; Control Group: CDDP 16 mg/kg i.p. alone, day 5",80%
same,Survival ratio,"[3]; Control Group: CDDP 16 mg/kg i.p. alone, day 8",30%
same,Survival ratio,"[3]; Control Group: CDDP 16 mg/kg i.p. alone, day 10",0%
same,Number of leukocytes,[4]; day 0 after start of test,20000 µL⁻¹
same,Number of leukocytes,[4]; day 10,10000 µL⁻¹
same,Number of leukocytes,[4]; day 20,6000 µL⁻¹
same,Number of leukocytes,[4]; day 25,11000 µL⁻¹
"COc1cccc2c1C(=O)c1c(O)c3c(c(O)c1C2=O)C[C@@](O)(C(=O)CO)C[C@@H]3O[C@H]1C[C@H](N)[C@H](O)[C@H](C)O1 [ADM, adriamycin]",Survival ratio,P388 leukemia cells [5],0%
same,Number surviving,P388 leukemia cells [5]; 8 per group,0 Heads
same,Decrease of body weight,"[6]; P388 mice, day 1 after start of the test",1.5 g
same,Decrease of body weight,[6]; day 3,3.3 g
same,Decrease of body weight,[6]; day 5,5.7 g
same,Decrease of body weight,[6]; day 7,6.5 g

# Source: patent US7462601B2, “Ameliorant for chemical treatment of cancer” (priority 2002, dated 2008)
